{"source": "ChEMBL document CHEMBL3044598", "about": "“Study of inhibitory effects and action mechanism of the novel fungicide pyrimorph against Phytophthora capsici” (J Agric Food Chem, 2010)", "format_in_all_cases": "functional", "key": {"[1]": {"system": "Phytophthora capsici", "assay": "Inhibition of intact mycelial respiration of Phytophthora capsici assessed as superpose rate of oxygen consumption at 10 ug/mL in presence of sodium phosphate", "parameters": "scale not given: the % may be the effect or the level left"}, "[2]": {"system": "Phytophthora capsici", "assay": "Inhibition of intact mycelial respiration of Phytophthora capsici assessed as superpose rate of oxygen consumption at 10 ug/mL in presence of iodoacetic acid", "parameters": "scale not given: the % may be the effect or the level left"}, "[3]": {"system": "Phytophthora capsici", "assay": "Inhibition of intact mycelial respiration of Phytophthora capsici assessed as superpose rate of oxygen consumption at 10 ug/mL in presence of malonic acid", "parameters": "scale not given: the % may be the effect or the level left"}, "[4]": {"system": "Phytophthora capsici", "assay": "Inhibition of intact mycelial respiration of Phytophthora capsici at 10 ug/mL in presence of sodium phosphate"}, "[5]": {"system": "Phytophthora capsici", "assay": "Inhibition of intact mycelial respiration of Phytophthora capsici at 10 ug/mL in presence of iodoacetic acid"}, "[6]": {"system": "Phytophthora capsici", "assay": "Inhibition of intact mycelial respiration of Phytophthora capsici at 10 ug/mL in presence of malonic acid"}, "[7]": {"system": "Phytophthora capsici", "assay": "Inhibition of intact mycelial respiration of Phytophthora capsici at 10 ug/mL"}}, "data": [{"smiles": "CO/C=C(/C(=O)OC)c1ccccc1Oc1cc(Oc2ccccc2C#N)ncn1", "note": "[AZOXYSTROBIN]", "values": [{"measurement": "Activity", "setting": "[1]", "result": 51.36, "unit": "%"}, {"measurement": "Activity", "setting": "[2]", "result": 53.27, "unit": "%"}, {"measurement": "Activity", "setting": "[3]", "result": 9.02, "unit": "%"}, {"measurement": "inhibition at 10 µg/mL", "setting": "[4]", "result": 86.2, "unit": "%"}, {"measurement": "inhibition at 10 µg/mL", "setting": "[5]", "result": 86.8, "unit": "%"}, {"measurement": "inhibition at 10 µg/mL", "setting": "[6]", "result": 74.2, "unit": "%"}, {"measurement": "inhibition at 10 µg/mL", "setting": "[7]", "result": 71.7, "unit": "%"}]}]}
